Results published in patent US20060229250A1, “Ghrelin associated peptide and its uses” (priority 2005, published 2006).
Ends that are not written are not given here. * marks the point of attachment. Octanoyl = CCCCCCCC(=O)*

How the values were obtained:
[1] = tested on: plasma membrane preparations of rat jejunum; assay: I125-obestatin radioligand binding to jejunal membranes; details: for competition for labeled obestatin binding: displacement of iodinated wild type obestatin, rat jejunal membranes
Method: Iodination of obestatin was performed using the lodogen (Pierce, Upland, Ind.) procedure. Mixtures of the peptide (20 μg) and 1 mCi [125I] Nal were transferred to precoated lodogen vials and incubated for 4 min. The 125I-labeled peptide was applied to a Sep-Pak C18 cartridge (Waters) before elution with 60% acetonitrile/0.1% TFA. For radioligand binding assays, rat jejunum or other tissues were washed with buffer A (20 mM Hepes, 5 mM EDTA, 1 mM dithiothreitol (DTT), 10 μM amidinophenylmethanesulfonyl fluoride, 5 mg/L leupeptin, 100 mM KCl, pH 7.5), cut into small pieces, and homogenized using a motorized homogenizer. The homogenates were centrifuged at 1,000 g for 5 min. and the supernatant was centrifuged at 300,000 g for 1 hour at 2° C. The pellets (crude membrane fractions) were resuspended with buffer A without KCl, quickly frozen under liquid nitrogen, and stored at −80° C. until use.
After incubation, the tubes were centrifuged for 10 min. at 10,000 g, and pellets were washed twice in ice-cold PBS before quantitation of radioactivity with a γ-spectrophotometer. Specific binding was calculated by subtracting nonspecific binding from total binding.

[2] = Food intake in mice after peptide injection; format: in vivo
Method: (§1) Analysis of gastrointestinal functions. Eight-week-old C57BL6 male mice were housed individually in a regulated environment. Before intraperitoneal treatment with different peptides, mice were deprived of food for 16 hours with free access to water. Food intake was measured by placing preweighed pellets in the cage and weighing uneaten pellets at 5 hours after treatment. For intracerebroventricular injection of different peptides, mice were deprived of food for 16 hours. Free-hand injections were performed at 2 hours after light onset and food intake monitored for 5 hours. To estimate gastric emptying responses, mice deprived of food for 16 hours were given food pellets for 90 min. before injection of different hormones or saline. After treatment, mice were deprived of food again and sacrificed 0.5, 1, and 2 hours later. The stomach was excised at the pylorus and cardia before weighing. Gastric emptying was calculated by subtracting the stomach weight of treated mice from those sacrificed at the time of peptide injection.

Gastric emptying in mice = format: in vivo; details: 1 μmol per kg body weight, 0.5, 1 and 2 hours after treatment
Method: as §1

jejunum muscle strips = assay: Isometric force measurement of jejunal muscle strips; details: in vitro; for contractile activity of jejunum muscle strips: isometric force, percent of maximal acetylcholine contraction
Method: Isometric force measurements. Strips of jejunal muscle (˜1 cm in length) were cut along the longitudinal axis of the circular muscle layer and the mucosa was removed to minimize contamination with endogenous peptides. Muscle strips were mounted to a TIS8105R (Kent Scientific Corporation, Torrington, Conn.) isometric strain gauge and immersed in a 5 ml organ bath maintained at 37° C. with oxygenated KRB [Krebs-Ringer phosphate buffer, consisting of 50 mM HEPES, 100 mM NaCl, 5 mM KCl, and 1 mM each of MgCl2, NaH2PO4, and CaCl2] as previously described. A resting force of 1.0 g was applied to intestinal muscles and a 1.5 hours equilibration period was allowed before testing of different peptides during a 5 min. period. After each test, muscle strips were washed with fresh KRB for 20 min. to allow full recovery of basal contractile activities. Maximal contraction was evaluated at the beginning and end of each experiment after treatment with 10 μM of acetylcholine chloride. Contractility data were digitized and stored in a computer using DAS Wizard™ (Measurement Computing, Middleboro, Mass.). The magnitude of contractile strength is expressed as percent of maximal contraction induced by acetylcholine.

[3] = Body weight in adult male rats under long-term peptide treatment; format: in vivo; details: 1 μmol per kg body weight, three times daily
Excerpt: The observed inhibition of jejunal contraction may trigger an afferent vagus signal to induce a central satiety response.

[4] = tested on: cultured rat pituitary cells; assay: Growth hormone secretion by cultured anterior pituitary cells; format: cell-based; details: 1 hour incubation
Method: Pituitary cell cultures. Anterior pituitaries were removed from adult male Sprague-Dawley rats and dispersed with 0.3% collagenase, 0.1% hyaluronidase and DNase I (10 μg/ml). The cell suspension was centrifuged at 300 g for 5 min. and cells were washed twice before incubation in Dulbecco minimal essential medium (DMEM) containing 0.1% bovine serum albumin (BSA), penicillin (100 units/ml), streptomycin (100 μg/ml), fungizone (2.5 μg/ml), and 10% fetal calf serum. Cells were seeded onto poly-lysine-coated 24-well plates at a density of ˜3×10^5 cells/well. Cultures were kept in a humidified atmosphere of 5% CO2 and 95% air at 37° C. […] Media was removed for growth hormone measurement by an enzyme-linked immunosorbent assay.

[5] = intraperitoneal injection, adult male mice deprived of food for 16 hours, cumulative intake up to 5 hours
[6] = intracerebroventricular treatment, 8 nmol per kg body weight, mice, monitored for 5 hours

With “FNAPFDVGIKLSGVLYQQHSQAL-NH2 [L15-obestatin]” the “competition for labeled obestatin binding” value [1] was “potency similar to the wild type obestatin”.
For “FNAPFDVGIKLSGVQYQQHSQALG (human) [NA-obestatin]”, the food intake [2, 5] was “less effective”.
In the case of FNAPFDVGIKLSGVQYQQHSQAL-NH2 [obestatin], the gastric emptying activity (Gastric emptying in mice) was “sustained suppression of gastric emptying activity”, the “contractile activity of jejunum muscle strips” value (jejunum muscle strips) was “decreased the contractile activity” and the “effect on ghrelin-stimulated contractile activity of jejunum muscle strips” value (jejunum muscle strips; together with ghrelin) was “antagonized the stimulatory effect of ghrelin”. The body weight [3] was “suppressed body-weight gain”, the growth hormone secretion [4] was “did not increase GH secretion” and the food intake [2, 6] was “decreased food intake”. The food intake [2, 5] was “suppressed food intake in a time- and dose-dependent manner”.
For MTII [reference compound], the food intake [2, 6] was “anorexigenic effect”.
For “I125-obestatin: obestatin iodinated with [125I] NaI by the Iodogen procedure”, the “specific binding of I125-obestatin” value ([1]; saturation binding, crude plasma membrane fractions of rat jejunum) was “High affinity binding”.
In the case of “ghrelin: peptide of 28 amino acids, serine-3 n-octanoylated; endogenous GHSR ligand; purchased from Phoenix Pharmaceuticals (GSS(Octanoyl)FLSPEHQRVQQRKESKKPPAKLQPR; UniProt Q9UBU3 24-51, looked up) [reference compound]”, the “contractile activity of jejunum muscle strips” value (jejunum muscle strips) was “stimulatory effect”, the “competition for labeled obestatin binding” value [1] was “does not compete” and the body weight [3] was “increased body weight”. The growth hormone secretion [4] was “stimulated growth hormone secretion”.
